Measured values reported in publication PMC6857051, “Proliferative regulation of alveolar epithelial type 2 progenitor cells by human Scnn1d gene” (Theranostics, 2019).

What was measured:
[1] = test system: ENaC activity in mouse AT2 monolayers; test: Ussing chamber short-circuit current, mAT2 monolayers; assay type: cell-based; settings: mAT2 (and MTE) monolayers, Isc, Figure 5D
Description: Mouse AT2 cell isolation and monolayer cultures. Mouse AT2 cells were isolated from both wt and Scnn1d Tg/Cre strains with C57BL/6 genetic background with a modified protocol of a previous publication, [72]. Briefly, lungs of euthanized mice were removed and incubated in dispase for 45 minutes, and then were gently teased and incubated in DMEM/F-12 + 0.01% DNase I for 10 minutes. Cells were passed through a serial of Nitex filters (100, 40, 30, and 10 microns; Corning, USA) and centrifuged at 300 × g for 10 minutes. Resuspended cells were incubated with biotin conjugated anti-CD16/32, CD45 and CD119 antibodies (BD Pharmingen, USA) and then incubated with streptavidin-coated magnetic particles. The cells were then incubated for 2 h at 37 °C in a plastic culture dish precoated with mouse IgG to remove fibroblasts. Upon passing the request for both viability (> 90%) and purity assays (> 94%) (Figures S7 & S8), mouse laminin 1 precoated transwells (Corning Costar, USA) were seeded with AT2 cells (10^6 cells/cm^2). […] Transepithelial resistance (RT) and potential difference (ET) were measured with an epithelial voltohmmeter (World Precision Instrument, USA). IEQ values were calculated as the ratio of ET / RT values. […] The transmonolayer potential was short circuited to 0 mV, and Isc level was measured with an epithelial voltage clamp (VCC-MC8, Physiologic Instruments). […]

[2] = test system: alveolar fluid clearance in human lungs; test: Alveolar fluid clearance in human lungs ex vivo; settings: n=5 per group, 60 minutes after instillation
From the text: Alveolar fluid clearance in human lungs ex vivo. The studies followed the guide of the […] and were approved by the Ethics Committee of the China Medical University (CMU) at Shenyang, China. All patients were given oral and written informed consent forms. Human lung tissues were obtained during pulmonary resection surgeries with lung cancer at the First Affiliated Hospital of CMU. There were no fibrous or emphysematous lesions as assessed by preoperative chest CT scanning. Human lung segments were prepared, and AFC measurements were done as described previously. Briefly, the segmental bronchus was occluded by a 10-Fr. balloon catheter immediately after removal of the lung, and occluded segments that were located furthest away from the focus of tumor were chosen. A warmed physiologic saline solution (20 ml; 37°C) containing 5% BSA with or without amiloride (1 mM) was instilled into the distal air spaces through the catheter. After instillation, the lungs were inflated with 100% oxygen at an airway pressure of 7 cm H2O. Alveolar fluid was aspirated 60 minutes after instillation. […] AFC values were calculated as follows: AFC = [(Vi - Vf)/Vi] × 100, where V is the volume of the instilled albumin solution (i) and the final alveolar fluid (f). […]

[3] = test system: δ802- and γ-ENaC subunits; test: Immunoblot of cleavage of tagged δ802- and γ-ENaC subunits in oocytes by serine proteases; assay type: biochemical, human; settings: 10 μg/ml, 45 minutes at room temperature
Description: Figure 3 Activation of δ802-containing ENaC channels by serine proteases. (A) Activation of δ802βγ ENaC expressed in Xenopus oocytes by two-chain urokinase plasminogen activator (tc-uPA). ENaC activity was measured at the membrane potential of -100 mV at defined time points post incubation with 10 μg/ml tc-uPA. n = 9-15. mean ± s.e.m. * P<0.05 vs data at the zero minute (min). (B) Time course of stimulatory effects of plasmin on δ802βγ-ENaC activity. n=12. * P<0.05. (C) Identification of subunit responsible for plasmin activation. Fold of amiloride-sensitive current (ASI) of ENaC-associated current in the presence of plasmin over that in the absence of plasmin was computed for oocytes expressing δ802+β+γ (δβγ), δ802 alone (δ), δ802+β(δβ), and δ802+γ (δγ). n = 12-15. * P<0.05. (D) Inhibitory effects of α-13 peptide on δ802αβγ- (δαβγ) and αβγ-ENaC activity post treatment of plasmin and aprotinin. Currents (I) at -100 mV were compared in the absence of amiloride (basal, open bar), presence of α-13 peptide (α13, closed bar), and amiloride (amil, grey bar). n=5. * P<0.05 vs basal currents, & P < 0.05 vs those in the presence of α-13 peptide. (E) Fractions of α-13 sensitive currents in cells pre-treated with plasmin and aprotinin. n=8. Control, without pre-treatment. (F) Cleavage of V5-tagged δ802- and γ-ENaC subunits by serine proteases. NI, non-injected oocytes as negative controls for ENaC expression. Oocytes incubated with chymotrypsin (CT, 10 μg/ml), plasmin (PI, 10 μg/ml) for 45 minutes at room temperature. Cells treated with the same volume of saline (‑) were controls for serine proteases.

Q: `N=C(N)NC(=O)c1nc(Cl)c(N)nc1N` [amiloride] was tested. Which “apparent ki value of amiloride, controls versus δ802-expressing cells” value [1] did it give?
A: much lesser in controls

Q: With Ac-LRGTLPHPLQRLR-NH2 [α-13 peptide] as the molecule, how does the “fraction of total alveolar fluid clearance inhibited” value [2] read?
A: Approximately half

B1: plasmin: serine protease of the plasmin(ogen) signal pathway for fibrinolysis (protein, UniProt P00747 20-580; P00747 581-810, looked up)
Plasmin heavy chain A: EPLDDYVNTQGASLFSVTKKQLGAGSIEECAAKCEEDEEFTCRAFQYHSKEQQCVIMAENRKSSIIIRMRDVVLFEKKVYLSECKTGNGKNYRGTMSKTKNGITCQKWSSTSPHRPRFSPATHPSEGLEENYCRNPDNDPQGPWCYTTDPEKRYDYCDILECEEECMHCSGENYDGKISKTMSGLECQAWDSQSPHAHGYIPSKFPNKNLKKNYCRNPDRELRPWCFTTDPNKRWELCDIPRCTTPPPSSGPTYQCLKGTGENYRGNVAVTVSGHTCQHWSAQTPHTHNRTPENFPCKNLDENYCRNPDGKRAPWCHTTNSQVRWEYCKIPSCDSSPVSTEQLAPTAPPELTPVVQDCYHGDGQSYRGTSSTTTTGKKCQSWSSMTPHRHQKTPENYPNAGLTMNYCRNPDADKGPWCFTTDPSVRWEYCNLKKCSGTEASVVAPPPVVLLPDVETPSEEDCMFGNGKGYRGKRATTVTGTPCQDWAAQEPHRHSIFTPETNPRAGLEKNYCRNPDGDVGGPWCYTTNPRKLYDYCDVPQCAAPSFDCGKPQVEPKKCPGR
Plasmin light chain B: VVGGCVAHPHSWPWQVSLRTRFGMHFCGGTLISPEWVLTAAHCLEKSPRPSSYKVILGAHQEVNLEPHVQEIEVSRLFLEPTRKDIALLKLSSPAVITDKVIPACLPSPNYVVADRTECFITGWGETQGTFGAGLLKEAQLPVIENKVCNRYEFLNGRVQSTELCAGHLAGGTDSCQGDSGGPLVCFEKDKYILQGVTSWGLGCARPNKPGVYVRVSRFVTWIEGVMRNN
modifications: Plasmin
notes: serine protease of the plasmin(ogen) signal pathway for fibrinolysis
Q: B1 was tested. Which “cleavage of γ-ENaC” value [3] did it give?
A: catalyzed

Q: What about the “cleavage of δ802 subunit” value [3] of the same molecule?
A: Neither chymotrypsin nor plasmin nor endogenous furin cleaved the δ802 subunit
